Among the data in PubChem BioAssay AID248 (DTP/NCI, 2004) are T/C values, retold here.

Molecules are shown by their SMILES. “And” between values parts separate entries of the source, which are not always exact repeats. Identical values can stand only once. Inconclusive results and toxic doses are left out.

The test has as its system L1210 leukemia ip in BDF1 mice, survival T/C. Nature of the test: NCI In Vivo Anticancer Drug Screen. Data for tumor model L1210 Leukemia (intraperitoneal) in B6D2F1 (BDF1) mice. As to conditions: endpoint: mean survival time, higher = longer survival. The method, boiled down:
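In this screen, tumor-bearing mice given compound are compared to those given vehicle, and their survival values are reported as a treated-to-control quotient.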

Setting [1] is: dose: 100.0 mg/kg/injection, schedule: Q04DX002 (ip), vehicle: saline.
The mark [2] stands for this setting: dose: 200.0 mg/kg/injection, schedule: Q04DX002 (ip), vehicle: saline.
Where [3] appears, read: dose: 100.0 mg/kg/injection, schedule: Q01DX001 (ip), vehicle: saline.
Where [4] appears, read: dose: 200.0 mg/kg/injection, schedule: Q01DX001 (ip), vehicle: saline.
Where [5] appears, read: dose: 400.0 mg/kg/injection, schedule: Q01DX001 (ip), vehicle: saline.
Where [6] appears, read: dose: 100.0 mg/kg/injection, schedule: Q01DX009 (ip), vehicle: Klucel (hydroxypropylcellulose) (HPC).
The mark [7] stands for this setting: dose: 200.0 mg/kg/injection, schedule: Q01DX009 (ip), vehicle: Klucel (hydroxypropylcellulose) (HPC).
Where [8] appears, read: dose: 400.0 mg/kg/injection, schedule: Q01DX009 (ip), vehicle: Klucel (hydroxypropylcellulose) (HPC).
[9] abbreviates: dose: 100.0 mg/kg/injection, schedule: Q04DX003 (ip), vehicle: Klucel (hydroxypropylcellulose) (HPC).
[10] abbreviates: dose: 200.0 mg/kg/injection, schedule: Q04DX003 (ip), vehicle: Klucel (hydroxypropylcellulose) (HPC).
[11] abbreviates: dose: 400.0 mg/kg/injection, schedule: Q04DX003 (ip), vehicle: saline with Tween-80.
Where [12] appears, read: dose: 100.0 mg/kg/injection, schedule: Q01DX009 (ip), vehicle: saline with Tween-80.
[13] abbreviates: dose: 200.0 mg/kg/injection, schedule: Q01DX009 (ip), vehicle: saline with Tween-80.
Setting [14] is: dose: 400.0 mg/kg/injection, schedule: Q01DX009 (ip), vehicle: saline with Tween-80.

On to `O=CC(O)C(O)C(O)C(O)CO` (configuration not stated) (tested in a mixture with another compound), for which the T/C is, setting by setting: (dose: 6.25 mg/kg/injection, schedule: Q04DX002 (ip), vehicle: saline) 95 % of control; (dose: 12.5 mg/kg/injection, schedule: Q04DX002 (ip), vehicle: saline) 100 % of control; (dose: 25.0 mg/kg/injection, schedule: Q04DX002 (ip), vehicle: saline) 103 % of control and 91 % of control; (dose: 75.0 mg/kg/injection, schedule: Q04DX002 (ip), vehicle: saline) 95 % of control; under setting [1], 103 % of control; (dose: 150.0 mg/kg/injection, schedule: Q04DX002 (ip), vehicle: saline) 95 % of control. Also, the T/C under setting [2] was 99 % of control; the T/C (dose: 300.0 mg/kg/injection, schedule: Q04DX002 (ip), vehicle: saline) was 106 % of control; the T/C (dose: 400.0 mg/kg/injection, schedule: Q04DX002 (ip), vehicle: saline) was 102 % of control.
As for `Cn1c(=O)c2c(nc(OCC3CC4CCC3C4)n2C)n(C)c1=O` (configuration not stated), the T/C by setting is: under setting [3], 96 % of control; under setting [4], 108 % of control; under setting [5], 108 % of control.
In the case of `CCCCCCc1c(C)nc(N)[nH]c1=O`, the T/C runs as follows: (dose: 100.0 mg/kg/injection, schedule: Q01DX001 (ip), vehicle: Klucel (hydroxypropylcellulose) (HPC)) 92 % of control; under setting [6], 105 % of control; (dose: 200.0 mg/kg/injection, schedule: Q01DX001 (ip), vehicle: Klucel (hydroxypropylcellulose) (HPC)) 89 % of control; under setting [7], 100 % of control; (dose: 400.0 mg/kg/injection, schedule: Q01DX001 (ip), vehicle: Klucel (hydroxypropylcellulose) (HPC)) 92 % of control; under setting [8], 97 % of control.
As to `C=CC(=O)OCC(C)(C)C`, the T/C is, setting by setting: under setting [1], 100 % of control and 103 % of control; under setting [2], 100 % of control and 107 % of control; (dose: 800.0 mg/kg/injection, schedule: Q04DX002 (ip), vehicle: saline) 97 % of control.
Turning to `C=Cc1ccc(O)cc1`, the T/C reads like this: under setting [3], 103 % of control; under setting [4], 106 % of control; under setting [5], 98 % of control.
For `CN(NC(=O)c1ccccc1)C(=O)c1ccccc1`, the T/C is 106 % of control (dose: 12.5 mg/kg/injection, schedule: Q04DX003 (ip), vehicle: Klucel (hydroxypropylcellulose) (HPC)); 104 % of control (dose: 25.0 mg/kg/injection, schedule: Q04DX003 (ip), vehicle: Klucel (hydroxypropylcellulose) (HPC)); 103 % of control (dose: 50.0 mg/kg/injection, schedule: Q04DX003 (ip), vehicle: Klucel (hydroxypropylcellulose) (HPC)); 108 % of control under setting [9]; 100 % of control (dose: 130.0 mg/kg/injection, schedule: Q04DX003 (ip), vehicle: Klucel (hydroxypropylcellulose) (HPC)); 103 % of control under setting [10]. For the same compound, for the setting “dose: 300.0 mg/kg/injection, schedule: Q04DX003 (ip), vehicle: Klucel (hydroxypropylcellulose) (HPC)”, the T/C is 113 % of control.
In the case of `Cc1ccc(NC(=O)NC(C)C)c(C)c1`, the T/C (dose: 12.5 mg/kg/injection, schedule: Q04DX003 (ip), vehicle: saline with Tween-80) was 96 % of control; the T/C (dose: 25.0 mg/kg/injection, schedule: Q04DX003 (ip), vehicle: saline with Tween-80) was 98 % of control; the T/C (dose: 50.0 mg/kg/injection, schedule: Q04DX003 (ip), vehicle: saline with Tween-80) was 104 % of control; the T/C under setting [11] is 90 % of control.
Turning to `COc1ccc(CC(Cc2ccc(OC)c(OC)c2)NC=O)cc1OC`, the T/C by setting is: under setting [12], 95 % of control; under setting [13], 97 % of control; under setting [14], 100 % of control.
As to `O=c1[nH]c2cnn(-c3ccccc3)c2c(=O)n1O`, the T/C runs as follows: (dose: 50.0 mg/kg/injection, schedule: Q01DX001 (ip), vehicle: saline) 97 % of control; under setting [3], 97 % of control; under setting [4], 97 % of control; under setting [5], 105 % of control.
On to `C=C(C1CC1)C1(CC)C(=O)NC(=S)NC1=O`, for which the T/C was 102 % of control (dose: 75.0 mg/kg/injection, schedule: Q01DX001 (ip), vehicle: other); 113 % of control (dose: 150.0 mg/kg/injection, schedule: Q01DX001 (ip), vehicle: other); 94 % of control (dose: 300.0 mg/kg/injection, schedule: Q01DX001 (ip), vehicle: other).
As to `CC(=O)NC(COC(C)=O)C1OC(C)(C)OC1C(COC(C)=O)OC(C)=O` (configuration not stated), the T/C runs as follows: under setting [3], 101 % of control; under setting [4], 104 % of control; under setting [5], 98 % of control.
Turning to `S=C(NCCCN1Cc2ccccc2C1)Nc1ccccc1`, the T/C is, setting by setting: under setting [3], 96 % of control; under setting [4], 104 % of control; under setting [5], 96 % of control.
With `C#CC(O)C1OC2OC(C)(C)OC2C1O` (configuration not stated), the T/C was 173 % of control under setting [6]; 101 % of control under setting [9]; 97 % of control under setting [7]; 101 % of control under setting [10]; 96 % of control under setting [8]; 113 % of control (dose: 400.0 mg/kg/injection, schedule: Q04DX003 (ip), vehicle: Klucel (hydroxypropylcellulose) (HPC)).
On to `[Cu+2].[NH-]C1C(Cl)CCC2C(Cl)CC[N-]C12` (configuration not stated), for which the T/C is 91 % of control (dose: 6.0 mg/kg/injection, schedule: Q04DX003 (ip), vehicle: Klucel (hydroxypropylcellulose) (HPC)); 108 % of control (dose: 12.0 mg/kg/injection, schedule: Q01DX001 (ip), vehicle: other); 102 % of control (dose: 12.0 mg/kg/injection, schedule: Q04DX003 (ip), vehicle: Klucel (hydroxypropylcellulose) (HPC)); 108 % of control (dose: 25.0 mg/kg/injection, schedule: Q01DX001 (ip), vehicle: other).
With `CC1(C#N)CC(c2ccccc2)Nc2ccccc2N1` (configuration not stated), the T/C was 92 % of control under setting [6]; 98 % of control under setting [9]; 100 % of control under setting [7]; 96 % of control under setting [10]; 96 % of control and 97 % of control (dose: 264.0 mg/kg/injection, schedule: Q04DX003 (ip), vehicle: Klucel (hydroxypropylcellulose) (HPC)); 97 % of control under setting [8].
For the compound `COc1cccc2cc([N+](=O)[O-])oc12`, the T/C by setting is: (dose: 25.0 mg/kg/injection, schedule: Q01DX009 (ip), vehicle: Klucel (hydroxypropylcellulose) (HPC)) 98 % of control; (dose: 50.0 mg/kg/injection, schedule: Q01DX009 (ip), vehicle: Klucel (hydroxypropylcellulose) (HPC)) 93 % of control; (dose: 50.0 mg/kg/injection, schedule: Q04DX002 (ip), vehicle: Klucel (hydroxypropylcellulose) (HPC)) 105 % of control; under setting [6], 101 % of control; (dose: 100.0 mg/kg/injection, schedule: Q04DX002 (ip), vehicle: Klucel (hydroxypropylcellulose) (HPC)) 94 % of control; (dose: 200.0 mg/kg/injection, schedule: Q04DX002 (ip), vehicle: Klucel (hydroxypropylcellulose) (HPC)) 101 % of control.
`CCCCCCCCCCNC(=O)C[n+]1cccc(C(N)=O)c1`: the T/C is 86 % of control (dose: 12.5 mg/kg/injection, schedule: Q04DX003 (ip), vehicle: saline); 89 % of control (dose: 25.0 mg/kg/injection, schedule: Q04DX003 (ip), vehicle: saline); 102 % of control (dose: 50.0 mg/kg/injection, schedule: Q04DX003 (ip), vehicle: saline).
Take `CCCCCCCCCCCCn1cnc2c(N)ncnc21`: the T/C is, setting by setting: (dose: 12.5 mg/kg/injection, schedule: Q01DX005 (ip), vehicle: other) 101 % of control; (dose: 25.0 mg/kg/injection, schedule: Q01DX005 (ip), vehicle: other) 96 % of control; (dose: 50.0 mg/kg/injection, schedule: Q01DX005 (ip), vehicle: other) 95 % of control; (dose: 100.0 mg/kg/injection, schedule: Q01DX005 (ip), vehicle: other) 96 % of control; (dose: 200.0 mg/kg/injection, schedule: Q01DX005 (ip), vehicle: other) 93 % of control.
Regarding `O=[N+]([O-])c1ccc2[nH]c3c(c2c1)CSCC3`, the T/C is 91 % of control under setting [12]; 100 % of control (dose: 100.0 mg/kg/injection, schedule: Q04DX003 (ip), vehicle: saline with Tween-80); 88 % of control under setting [13]; 100 % of control (dose: 200.0 mg/kg/injection, schedule: Q04DX003 (ip), vehicle: saline with Tween-80); 94 % of control under setting [14]; 95 % of control under setting [11].
